Series [1] has as its system Human epidermoid carcinoma (oral) cell KB. In words: Cytocidal activity of HS-1 for KB cells (MTT). It is filed as cell-based. As to conditions: 72 hours, absorption at 540 nm, read-out: TC50 (the source's name). The protocol:
Human epidermoid carcinoma (oral) cell KB was inoculated into 96-well microplates (4000 cells/200 μl/well) and cultured in DMEM medium (containing 5% FCS) in 5% CO2 at 37° C. for 24 hours. 5 μl of HS-1 solutions in DMSO at various HS-1 concentrations were added to above culture. After the culture incubated for 72 hours, 10 μl of a 2.5 mg/ml MTT solution was added and incubator was continued for a further 4 hours, thus producing formazan. After the addition of 200 μl of DMSO, the absorption at 540 nm was measured using an imunoreader. The cytocidal activity of HS-1 for KB cells was determined from the ratio of the absorption of the compound to the absorption of the control.

A further series can be described thus: Solubility. It is filed as physicochemical.
Series [2] has as its system Pseudomonas aeruginosa N-10 (L-form). In words: Antimicrobial activity, paper disc inhibition zone. The note with it: 40 μg/disc, 8 mm paper disc. The class given is cell-based. On the procedure: (§1) Antimicrobial activity of HS-1 was examined using eleven kinds of bacteria, fungi, and yeasts using paper discs with a diameter of 8 mm, at a concentration of 40 μg/disc. The results are shown in Table 3, wherein the antimicrobial activity of HS-1 is indicated as the diameter of the inhibition zone.

The next series concerns Escherichia coli BE 1196. In words: Antimicrobial activity, paper disc inhibition zone. It is filed as cell-based. The note with it: BE1196, 40 μg/disc, 8 mm paper disc. On the procedure:
as §1

In series [3] the test system is Staphylococcus aureus IFO 12732. In words: Antimicrobial activity, paper disc inhibition zone. It is filed as cell-based. As to conditions: IFO12732, 40 μg/disc, 8 mm paper disc. On the procedure:
as §1

In a further series the test system is Bacillus subtilis rec +. In words: Antimicrobial activity, paper disc inhibition zone. The class given is cell-based. The note with it: 40 μg/disc, 8 mm paper disc; Bacillus subtilis rec + (wild strain). The protocol: as §1
The test system of series [4] is Xanthomonas citri IFO 3781. In words: Antimicrobial activity, paper disc inhibition zone. It is filed as cell-based. The note with it: IFO3781, 40 μg/disc, 8 mm paper disc. On the procedure: as §1
Series [5] relates to Schizosaccharomyces pombe IFO 0638. As to the kind of experiment: Antimicrobial activity, paper disc inhibition zone. It is filed as cell-based. As to conditions: IFO0638, 40 μg/disc, 8 mm paper disc. On the procedure: as §1
In series [6] the test system is Botrytis cinerea IFO 5365. In words: Antimicrobial activity, paper disc inhibition zone. It is filed as cell-based. As to conditions: IFO5365, 40 μg/disc, 8 mm paper disc. On the procedure:
as §1

A further series concerns Bacillus subtilis rec -. As to the kind of experiment: Antimicrobial activity, paper disc inhibition zone. It is filed as cell-based. As to conditions: 40 μg/disc, 8 mm paper disc; Bacillus subtilis rec - (repair activity defective strain). The protocol: as §1
The next series deals with Escherichia coli AB 1157. As to the kind of experiment: Antimicrobial activity, paper disc inhibition zone. The class given is cell-based. As to conditions: AB1157, 40 μg/disc, 8 mm paper disc. The protocol: as §1
Series [7] concerns Mycobacterium phlei IFO 11158. As to the kind of experiment: Antimicrobial activity, paper disc inhibition zone. It is filed as cell-based. The note with it: Mycolicibacterium phlei, IFO11158, 40 μg/disc, 8 mm paper disc. The protocol: as §1
Series [8] concerns Xanthomonas oryzae IFO 331.2. As to the kind of experiment: microbe, parasite or virus in culture. As to conditions: IFO331, read-out: Inhibition zone. It is filed as cell-based.
The conditions of series [9]: known from the literature; cited from earlier work.

Converted amounts (≈) assume the structure as drawn. A value given as a limit tells only on which side of the number the result lay.

For `O=C1N=C(c2c[nH]c3ccccc23)C=C1c1c[nH]c2ccccc12` [HS-1], the IC50 in series [1] turned out to be 0.68 µg/mL (≈ 2.18 µM). Also, the Solubility result in “Solubility” (in dimethyl sulfoxide) was “Readily soluble”; in the series “Solubility” (in methanol) it was “scarcely soluble”; in the series “Solubility” (in water), “insoluble”. In addition, the zone of inhibition at 40 µg/disc in [2] is under 10 mm; in the series on Escherichia coli BE 1196, 0 mm; in [3], 0 mm; with Bacillus subtilis rec +, 0 mm; in series [4], 0 mm; in series [5], 0 mm. Moreover, the zone of inhibition at 40 µg/disc is 0 mm in series [6]; under 10 mm with Bacillus subtilis rec -; 0 mm with Escherichia coli AB 1157; 0 mm in series [7]; 11.9 mm in [8].
Consider `O=C1NC(c2c[nH]c3ccc(O)cc23)=C/C1=C1\C(=O)Nc2ccccc21` [violacein], for which the “antimicrobial and antiprotozoal activities” value in series [9] was “known to exhibit antimicrobial and antiprotozoal activities”.

These data come from patent US5428175A (priority 1993, dated 1995).
